Laboratory results taken from publication PMC6199744, “Development of Chemical Proteomics for the Folateome and Analysis of the Kinetoplastid Folateome” (ACS Infectious Diseases, 2018).
Like-named read-outs stand apart in the source and are kept apart here.

What was measured:
Assay type in all cases: binding
[1] = target: T1, HeLa cell extract proteins (Homo sapiens, UniProt Q99873)
T1 construct: endogenous in cells; host or cells: HeLa cell extract

[2] = target: T2, HeLa cell extract proteins (Homo sapiens, UniProt P04843)
T2 construct: endogenous in cells; host or cells: HeLa cell extract
T2 sequence (P04843 24-607): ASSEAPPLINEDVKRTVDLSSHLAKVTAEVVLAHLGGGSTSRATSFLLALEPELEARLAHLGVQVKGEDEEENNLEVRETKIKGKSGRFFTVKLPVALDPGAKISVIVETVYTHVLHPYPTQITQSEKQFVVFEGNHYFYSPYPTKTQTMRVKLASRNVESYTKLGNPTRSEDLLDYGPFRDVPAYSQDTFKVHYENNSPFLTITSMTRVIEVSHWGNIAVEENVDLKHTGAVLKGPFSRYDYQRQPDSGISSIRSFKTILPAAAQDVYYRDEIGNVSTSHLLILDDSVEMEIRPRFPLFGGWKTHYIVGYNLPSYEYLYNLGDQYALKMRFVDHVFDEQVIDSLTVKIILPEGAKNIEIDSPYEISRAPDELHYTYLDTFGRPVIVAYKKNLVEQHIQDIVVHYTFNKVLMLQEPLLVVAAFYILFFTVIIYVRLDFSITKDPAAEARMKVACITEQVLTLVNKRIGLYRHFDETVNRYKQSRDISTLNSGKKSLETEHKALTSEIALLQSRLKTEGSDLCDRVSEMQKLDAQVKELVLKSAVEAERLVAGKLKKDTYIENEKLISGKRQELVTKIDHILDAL

[3] = target: T3, HeLa cell extract proteins (Homo sapiens, UniProt P60709)
T3 construct: endogenous in cells; host or cells: HeLa cell extract

[4] = target: T4, HeLa cell extract proteins (Homo sapiens, UniProt Q9Y5L0)
T4 construct: endogenous in cells; host or cells: HeLa cell extract
T4 sequence (Q9Y5L0 1-923): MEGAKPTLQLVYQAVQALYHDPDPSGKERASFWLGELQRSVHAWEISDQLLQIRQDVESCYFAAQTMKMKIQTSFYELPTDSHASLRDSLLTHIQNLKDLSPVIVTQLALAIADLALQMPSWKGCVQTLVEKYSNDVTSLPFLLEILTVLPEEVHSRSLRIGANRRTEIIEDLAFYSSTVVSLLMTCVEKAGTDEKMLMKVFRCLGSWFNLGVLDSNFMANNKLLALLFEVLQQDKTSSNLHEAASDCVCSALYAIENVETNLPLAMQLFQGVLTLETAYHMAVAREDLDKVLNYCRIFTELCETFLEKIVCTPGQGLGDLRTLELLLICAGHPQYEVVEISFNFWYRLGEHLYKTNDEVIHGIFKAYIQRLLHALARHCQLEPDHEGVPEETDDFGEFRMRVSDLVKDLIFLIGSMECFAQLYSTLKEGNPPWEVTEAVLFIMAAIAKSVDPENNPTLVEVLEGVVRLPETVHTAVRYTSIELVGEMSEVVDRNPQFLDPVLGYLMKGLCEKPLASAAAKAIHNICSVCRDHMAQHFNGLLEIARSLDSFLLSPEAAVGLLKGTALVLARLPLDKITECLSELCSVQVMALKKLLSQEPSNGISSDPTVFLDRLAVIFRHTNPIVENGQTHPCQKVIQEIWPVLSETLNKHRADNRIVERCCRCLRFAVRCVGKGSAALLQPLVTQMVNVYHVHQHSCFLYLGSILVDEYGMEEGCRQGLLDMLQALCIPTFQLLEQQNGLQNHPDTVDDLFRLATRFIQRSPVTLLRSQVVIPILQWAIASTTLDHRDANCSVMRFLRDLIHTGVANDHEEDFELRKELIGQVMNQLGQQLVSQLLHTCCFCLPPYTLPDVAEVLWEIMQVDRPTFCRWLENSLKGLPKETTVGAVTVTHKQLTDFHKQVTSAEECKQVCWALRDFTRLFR

[5] = target: T5, HeLa cell extract proteins (Homo sapiens, UniProt Q15437)
T5 construct: endogenous in cells; host or cells: HeLa cell extract

[6] = target: T6, HeLa cell extract proteins (Homo sapiens, UniProt O43809)
T6 construct: endogenous in cells; host or cells: HeLa cell extract

[7] = target: T7, HeLa cell extract proteins (Homo sapiens, UniProt P16083)
T7 construct: endogenous in cells; host or cells: HeLa cell extract
T7 sequence (P16083 1-231): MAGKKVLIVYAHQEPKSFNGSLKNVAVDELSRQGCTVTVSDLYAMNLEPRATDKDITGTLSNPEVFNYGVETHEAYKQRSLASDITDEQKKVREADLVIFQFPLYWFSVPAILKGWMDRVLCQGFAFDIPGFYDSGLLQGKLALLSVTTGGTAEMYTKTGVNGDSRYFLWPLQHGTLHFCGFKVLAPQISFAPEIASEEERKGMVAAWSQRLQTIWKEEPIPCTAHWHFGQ

[8] = target: T8, HeLa cell extract proteins (Homo sapiens, UniProt P43362)
T8 construct: endogenous in cells; host or cells: HeLa cell extract
T8 sequence (P43362 1-315): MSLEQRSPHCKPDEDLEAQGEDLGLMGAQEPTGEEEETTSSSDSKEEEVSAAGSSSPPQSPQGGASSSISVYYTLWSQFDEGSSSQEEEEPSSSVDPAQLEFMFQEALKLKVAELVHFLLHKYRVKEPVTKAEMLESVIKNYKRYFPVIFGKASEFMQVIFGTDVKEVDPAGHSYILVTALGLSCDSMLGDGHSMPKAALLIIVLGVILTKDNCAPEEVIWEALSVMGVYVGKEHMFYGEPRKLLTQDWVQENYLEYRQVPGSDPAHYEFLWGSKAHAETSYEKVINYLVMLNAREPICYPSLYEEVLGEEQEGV

[9] = target: T9, HeLa cell extract proteins (Homo sapiens, UniProt P63151)
T9 construct: endogenous in cells; host or cells: HeLa cell extract
T9 sequence (P63151 1-447): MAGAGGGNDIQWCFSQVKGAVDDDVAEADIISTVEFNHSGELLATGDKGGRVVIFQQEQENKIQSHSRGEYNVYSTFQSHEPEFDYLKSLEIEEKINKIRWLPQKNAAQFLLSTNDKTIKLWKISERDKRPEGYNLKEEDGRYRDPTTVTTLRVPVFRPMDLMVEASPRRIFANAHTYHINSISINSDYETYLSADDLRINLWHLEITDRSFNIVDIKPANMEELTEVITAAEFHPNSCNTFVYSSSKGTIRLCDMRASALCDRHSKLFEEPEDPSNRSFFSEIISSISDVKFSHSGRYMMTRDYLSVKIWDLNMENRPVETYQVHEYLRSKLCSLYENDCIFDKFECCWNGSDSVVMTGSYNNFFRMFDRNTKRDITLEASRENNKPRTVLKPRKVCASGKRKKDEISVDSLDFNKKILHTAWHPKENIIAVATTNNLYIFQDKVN

T6 sequence (O43809 whole entry): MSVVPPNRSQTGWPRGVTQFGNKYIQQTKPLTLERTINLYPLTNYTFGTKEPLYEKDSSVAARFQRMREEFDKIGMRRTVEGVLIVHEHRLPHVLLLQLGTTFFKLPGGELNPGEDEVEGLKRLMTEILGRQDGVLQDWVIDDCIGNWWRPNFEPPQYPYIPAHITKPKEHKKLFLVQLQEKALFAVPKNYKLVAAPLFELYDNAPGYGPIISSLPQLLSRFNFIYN
T1 sequence (Q99873 whole entry): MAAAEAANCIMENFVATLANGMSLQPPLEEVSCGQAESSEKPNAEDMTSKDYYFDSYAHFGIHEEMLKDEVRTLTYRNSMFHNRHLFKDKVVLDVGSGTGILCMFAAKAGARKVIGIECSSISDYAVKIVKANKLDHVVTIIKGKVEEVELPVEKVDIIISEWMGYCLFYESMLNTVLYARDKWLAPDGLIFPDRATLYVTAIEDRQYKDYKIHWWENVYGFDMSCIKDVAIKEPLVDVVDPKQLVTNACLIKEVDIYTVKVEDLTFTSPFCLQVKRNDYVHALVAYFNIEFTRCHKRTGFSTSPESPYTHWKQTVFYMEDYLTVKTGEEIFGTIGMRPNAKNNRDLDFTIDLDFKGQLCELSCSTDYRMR
T5 sequence (Q15437 whole entry): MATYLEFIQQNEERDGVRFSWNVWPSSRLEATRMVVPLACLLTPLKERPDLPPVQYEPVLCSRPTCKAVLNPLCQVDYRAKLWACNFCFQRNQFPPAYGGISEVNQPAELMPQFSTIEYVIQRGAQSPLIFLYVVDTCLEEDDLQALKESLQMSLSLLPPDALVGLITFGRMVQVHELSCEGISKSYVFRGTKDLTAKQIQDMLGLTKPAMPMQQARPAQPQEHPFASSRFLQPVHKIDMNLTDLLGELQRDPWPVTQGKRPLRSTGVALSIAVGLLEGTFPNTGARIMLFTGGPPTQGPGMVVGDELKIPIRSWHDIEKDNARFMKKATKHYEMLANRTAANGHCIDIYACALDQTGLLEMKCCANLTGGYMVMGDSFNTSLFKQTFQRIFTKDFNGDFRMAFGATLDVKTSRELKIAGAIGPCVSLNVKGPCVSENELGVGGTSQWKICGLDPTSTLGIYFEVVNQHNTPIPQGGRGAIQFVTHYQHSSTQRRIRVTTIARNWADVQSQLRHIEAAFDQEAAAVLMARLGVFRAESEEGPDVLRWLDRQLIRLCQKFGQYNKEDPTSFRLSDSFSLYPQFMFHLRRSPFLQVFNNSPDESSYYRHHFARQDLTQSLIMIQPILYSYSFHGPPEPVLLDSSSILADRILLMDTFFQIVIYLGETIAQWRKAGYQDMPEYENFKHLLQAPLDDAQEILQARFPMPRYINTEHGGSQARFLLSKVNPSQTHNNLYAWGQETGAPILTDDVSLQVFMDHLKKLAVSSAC

| SMILES | fold changes relative to vehicle control ([1]; HeLa, protein PRMT1) | fold changes relative to vehicle control ([2]; HeLa, protein RPN1) | fold changes relative to vehicle control ([3]; HeLa, protein ACTB) | fold changes relative to vehicle control ([4]; HeLa, captured protein TNPO3) | fold changes relative to vehicle control ([5]; HeLa, protein SEC23B) | fold changes relative to vehicle control ([6]; protein NUDT21, HeLa) | fold changes relative to vehicle control ([7]; protein NQO2, HeLa) | fold changes relative to vehicle control ([8]; HeLa, protein MAGEA9) | fold changes relative to vehicle control ([9]; HeLa, captured protein PPP2R2A) | fold changes relative to vehicle control ([1]; protein PRMT1, HeLa) | fold changes relative to vehicle control ([2]; protein RPN1, HeLa) | fold changes relative to vehicle control ([3]; protein ACTB, HeLa) | fold changes relative to vehicle control ([4]; HeLa, protein TNPO3) | fold changes relative to vehicle control ([7]; HeLa, protein NQO2) | fold changes relative to vehicle control ([8]; protein MAGEA9, HeLa) | fold changes relative to vehicle control ([9]; protein PPP2R2A, HeLa) | other results |
| --- | --- | --- | --- | --- | --- | --- | --- | --- | --- | --- | --- | --- | --- | --- | --- | --- | --- |
| Nc1nc2c(c(=O)[nH]1)N(C=O)C(CNc1ccc(C(=O)N[C@@H](CCC(=O)O)C(=O)O)cc1)CN2 (stereo partly drawn) [LEU, leucovorin] | 0.94 | 0.88 | 1.13 | 0.95 | 0.98 | 1.11 | 1.1 | 0.95 | 0.97 | – | – | – | – | – | – | – | – |
| Nc1nc2[nH]cc(CCc3ccc(C(=O)N[C@@H](CCC(=O)O)C(=O)O)cc3)c2c(=O)[nH]1 [PTX, pemetrexed] | – | – | – | – | – | – | – | – | – | – | – | – | – | – | – | – | fold changes relative to vehicle control [1]: 0.93; fold changes relative to vehicle control [2]: 0.96; fold changes relative to vehicle control [3]: 1.18; fold changes relative to vehicle control [4]: 0.96; fold changes relative to vehicle control [5]: 0.91; fold changes relative to vehicle control [6]: 0.97; fold changes relative to vehicle control [7]: 0.16; fold changes relative to vehicle control [8]: 0.82; fold changes relative to vehicle control [9]: 0.97 |
| CCCCCCOc1ccc(Cc2cnc(N)nc2N)cc1 [compound 1] | – | – | – | – | 1.01 | 1.16 | – | – | – | 0.95 | 1.09 | 1.25 | 0.93 | 0.91 | 0.78 | 0.92 | – |
| CCCCCCOc1cccc(Cc2cnc(N)nc2N)c1 [compound 2] | – | – | – | – | 0.93 | 1.28 | – | – | – | 1.24 | 1.28 | 1.5 | 0.9 | 0.7 | 1.24 | 1.05 | – |
| Nc1nc2cccc(-c3ccccc3)c2n1Cc1ccc(Cl)c(Cl)c1 [compound 3] | – | – | – | – | 1.04 | 0.99 | – | – | – | 0.93 | 1.02 | 1.07 | 1.01 | 0.99 | 0.92 | 0.99 | – |
| NCCOCCOCC(=O)Nc1nc2ncc(CNc3ccc(C(=O)NC(CCC(=O)O)C(=O)O)cc3)nc2c(=O)[nH]1 (stereo not drawn) [compound 6] | 0.95 | 0.96 | 1.39 | 1.04 | 0.88 | 1 | 0.72 | 1.04 | 0.97 | – | – | – | – | – | – | – | – |
| NCCCNc1ccc(C(=O)NC(CCC(=O)O)C(=O)O)cc1 (stereo not drawn) [compound 7] | 0.91 | 0.94 | 1.04 | 0.96 | 1.09 | 0.98 | 1.04 | 1 | 0.87 | – | – | – | – | – | – | – | – |
